According to ChEMBL document CHEMBL1201862, “PubChem BioAssay data set” (2004):
Several values for one entry are separate records, joined by “and”; a condition that tells them apart may be missing. Equal values may be shown once. Activity calls are given as the source filed them. For most assays here, no stated cut-off is given here; in the data, actives have a measured EC50 and inactives only a lower limit.

How the values were obtained:
[1] = target: T1, Zinc finger protein mex-5 (Caenorhabditis elegans, UniProt Q9XUB2); experiment: MEX-5/TCR-2 RNA interaction inhibitors, dose response, biochemical, C. elegans, fluorescence polarization (AID 1960)
T1 sequence (Q9XUB2 whole entry): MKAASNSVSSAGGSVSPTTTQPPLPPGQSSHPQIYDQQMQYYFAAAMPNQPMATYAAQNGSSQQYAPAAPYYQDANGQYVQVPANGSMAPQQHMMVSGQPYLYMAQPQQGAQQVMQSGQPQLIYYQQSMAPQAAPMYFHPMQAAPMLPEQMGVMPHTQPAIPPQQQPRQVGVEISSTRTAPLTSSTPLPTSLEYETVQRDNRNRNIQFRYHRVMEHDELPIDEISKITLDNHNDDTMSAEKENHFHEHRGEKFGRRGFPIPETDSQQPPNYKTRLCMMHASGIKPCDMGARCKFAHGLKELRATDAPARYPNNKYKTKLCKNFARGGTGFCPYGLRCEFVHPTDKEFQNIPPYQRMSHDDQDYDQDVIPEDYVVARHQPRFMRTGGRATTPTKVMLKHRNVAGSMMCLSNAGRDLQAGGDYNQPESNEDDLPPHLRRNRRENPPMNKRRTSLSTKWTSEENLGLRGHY

[2] = target: T2, RNA-binding protein pos-1 (Caenorhabditis elegans, UniProt G5EF15); experiment: inhibitors of POS-1/mex-3 RNA binding, dose response, biochemical, fluorescence polarization (AID 1964);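 further: purified POS-1 fused to maltose binding protein made in E. coli; potency of compounds blocking POS-1 binding to fluorescent RNA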
T2 sequence (G5EF15 whole entry): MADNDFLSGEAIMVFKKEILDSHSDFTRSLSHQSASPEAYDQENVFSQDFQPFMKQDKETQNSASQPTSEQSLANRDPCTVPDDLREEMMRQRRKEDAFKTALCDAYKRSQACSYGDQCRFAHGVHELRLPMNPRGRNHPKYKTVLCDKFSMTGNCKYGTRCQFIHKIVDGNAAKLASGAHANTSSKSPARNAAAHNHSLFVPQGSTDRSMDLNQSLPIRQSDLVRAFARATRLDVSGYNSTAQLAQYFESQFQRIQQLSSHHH

[3] = target: Cytochrome P450 2D6 (Homo sapiens, UniProt P10635);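 further: CYP2D6 member of a cytochrome P450 panel assay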
Chain of Cytochrome P450 2D6 (P10635 whole entry): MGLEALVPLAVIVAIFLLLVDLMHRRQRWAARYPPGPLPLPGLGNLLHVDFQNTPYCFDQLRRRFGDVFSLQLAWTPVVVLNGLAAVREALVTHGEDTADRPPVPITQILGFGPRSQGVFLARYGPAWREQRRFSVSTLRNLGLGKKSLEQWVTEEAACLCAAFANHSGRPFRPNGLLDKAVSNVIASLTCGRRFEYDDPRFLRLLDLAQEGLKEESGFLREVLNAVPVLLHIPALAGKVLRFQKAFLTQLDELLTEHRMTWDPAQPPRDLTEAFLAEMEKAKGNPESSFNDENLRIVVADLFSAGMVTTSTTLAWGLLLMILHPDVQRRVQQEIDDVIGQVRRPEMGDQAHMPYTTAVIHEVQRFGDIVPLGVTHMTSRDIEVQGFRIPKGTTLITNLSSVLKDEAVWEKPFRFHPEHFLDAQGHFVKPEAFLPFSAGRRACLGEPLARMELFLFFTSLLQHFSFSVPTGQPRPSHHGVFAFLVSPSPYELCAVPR

[4] = target: Cytochrome P450 2C9 (Homo sapiens, UniProt P11712)
Chain of Cytochrome P450 2C9 (P11712 whole entry): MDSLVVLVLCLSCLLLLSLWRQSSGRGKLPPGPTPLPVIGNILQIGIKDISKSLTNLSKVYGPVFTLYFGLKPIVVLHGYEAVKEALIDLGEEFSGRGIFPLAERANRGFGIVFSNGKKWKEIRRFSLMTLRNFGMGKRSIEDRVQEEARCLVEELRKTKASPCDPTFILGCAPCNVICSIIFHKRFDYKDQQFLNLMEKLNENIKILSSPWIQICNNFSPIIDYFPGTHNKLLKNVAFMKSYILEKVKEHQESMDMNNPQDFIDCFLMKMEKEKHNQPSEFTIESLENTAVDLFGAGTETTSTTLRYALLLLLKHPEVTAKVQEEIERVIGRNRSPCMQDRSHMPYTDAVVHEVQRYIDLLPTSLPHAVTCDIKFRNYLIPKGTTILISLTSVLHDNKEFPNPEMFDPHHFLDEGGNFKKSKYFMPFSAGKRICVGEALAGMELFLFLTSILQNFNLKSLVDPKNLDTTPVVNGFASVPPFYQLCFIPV

[5] = C. albicans growth with fluconazole, confirmation, fluorescence, retest (AID 2467); format: functional, cell-based
[6] = NIH-3T3 fibroblast cytotoxicity, dose response, cytotoxicity control, cell-based, fluorescence, Alamar Blue, secondary assay (AID 2327); format: functional;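 further: NIH-3T3 mouse fibroblasts cultured with fluconazole at 8 µg/mL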
[7] = target: T3, Heat shock factor protein 1 (Mus musculus, UniProt P38532); experiment: HSF1 potentiators in luciferase reporter cells, confirmation, cell-based, NIH3T3, luminescence, dose retest (AID 435004); format: functional;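 further: stress induced by proteasome inhibitor MG132 added 30 min after compound; luciferase reporter driven by HSF1 response element in NIH3T3 cells; actives raise luminescence as potentiators of the MG132 stress response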
T3 sequence (P38532 whole entry): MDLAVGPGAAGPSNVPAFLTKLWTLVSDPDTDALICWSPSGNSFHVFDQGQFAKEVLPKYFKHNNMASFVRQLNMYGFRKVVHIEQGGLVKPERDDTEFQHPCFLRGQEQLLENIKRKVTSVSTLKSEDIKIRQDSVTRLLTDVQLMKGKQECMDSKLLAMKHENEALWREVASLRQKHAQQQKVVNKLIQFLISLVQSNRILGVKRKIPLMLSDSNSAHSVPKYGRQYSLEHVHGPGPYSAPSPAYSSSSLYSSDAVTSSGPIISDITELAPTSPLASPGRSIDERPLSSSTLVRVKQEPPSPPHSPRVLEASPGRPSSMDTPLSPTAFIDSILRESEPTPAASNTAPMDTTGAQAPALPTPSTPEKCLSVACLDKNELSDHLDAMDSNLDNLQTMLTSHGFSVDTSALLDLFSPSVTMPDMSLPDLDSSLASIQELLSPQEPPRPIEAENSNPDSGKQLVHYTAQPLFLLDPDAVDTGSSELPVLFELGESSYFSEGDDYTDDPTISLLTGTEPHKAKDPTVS

[8] = target: Cytochrome P450 3A4 (Homo sapiens, UniProt P08684);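 further: CYP3A4 tested as one member of a cytochrome P450 panel screen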
Chain of Cytochrome P450 3A4 (P08684 whole entry): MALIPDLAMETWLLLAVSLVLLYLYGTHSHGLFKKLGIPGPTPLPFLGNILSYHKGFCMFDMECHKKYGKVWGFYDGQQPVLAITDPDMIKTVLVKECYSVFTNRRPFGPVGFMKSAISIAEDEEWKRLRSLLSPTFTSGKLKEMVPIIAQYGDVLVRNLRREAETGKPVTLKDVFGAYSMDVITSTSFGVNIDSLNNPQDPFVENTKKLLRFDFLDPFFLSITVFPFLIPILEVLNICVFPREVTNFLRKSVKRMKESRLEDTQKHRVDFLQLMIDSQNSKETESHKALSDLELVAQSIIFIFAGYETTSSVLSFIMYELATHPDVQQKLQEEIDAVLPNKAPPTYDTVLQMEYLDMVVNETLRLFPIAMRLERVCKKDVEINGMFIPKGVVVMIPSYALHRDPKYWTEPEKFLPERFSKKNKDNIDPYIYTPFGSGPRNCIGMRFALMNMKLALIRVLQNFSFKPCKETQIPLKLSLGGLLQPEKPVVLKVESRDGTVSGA

[9] = system: Streptococcus sp. 'group A'; experiment: growth inhibition of control SK(-) GAS strain, dose response, counter-screen for streptokinase expression inhibitor project, luminescence, kanamycin, BacTiterGlo, confirmation (AID 1900); format: functional, organism-based
[10] = system: Streptococcus; experiment: Group A Streptococcus viability loss, dose response, counter-screen for streptokinase expression inhibitor project, luminescence, BacTiterGlo (AID 1915); format: functional, organism-based;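 further: potency for reduction of bacterial viability or growth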
[11] = target: T4, Streptokinase A (Streptococcus pyogenes serotype M1, UniProt P10520); experiment: S. pyogenes streptokinase expression inhibitors, potency, dose response, plasminogen activation absorbance, OD405 (AID 1914); format: functional, Streptococcus pyogenes M1 GAS;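 further: secreted streptokinase activity via plasminogen activation per viability signal from cell pellet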
T4 sequence (P10520 whole entry): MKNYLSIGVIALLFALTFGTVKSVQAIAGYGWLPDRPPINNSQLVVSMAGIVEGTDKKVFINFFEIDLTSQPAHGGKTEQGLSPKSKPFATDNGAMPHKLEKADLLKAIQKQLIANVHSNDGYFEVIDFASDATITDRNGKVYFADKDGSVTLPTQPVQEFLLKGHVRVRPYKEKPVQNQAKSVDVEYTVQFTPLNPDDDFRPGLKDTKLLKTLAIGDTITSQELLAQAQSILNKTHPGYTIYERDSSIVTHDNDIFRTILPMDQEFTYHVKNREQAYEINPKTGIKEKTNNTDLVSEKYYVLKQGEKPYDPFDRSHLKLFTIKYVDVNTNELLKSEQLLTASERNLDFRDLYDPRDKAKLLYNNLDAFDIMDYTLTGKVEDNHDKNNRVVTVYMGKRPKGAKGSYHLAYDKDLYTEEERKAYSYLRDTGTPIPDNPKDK

[12] = system: INS1; experiment: beta cell apoptosis inhibitors, cytokine rescue, dose response, luminescence, retest (AID 449756); format: functional, cell-based; settings: Rattus norvegicus;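 further: cell death triggered by IL-1 beta plus TNF-alpha plus IFN-gamma mixture; protective hits raise ATP signal compared with cytokine alone wells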

SMILES | EC50 [1] | EC50 [2] | AC50 [3] | further results
N#Cc1c(NC(=O)/C=C/C(=O)O)sc2c1CCN(Cc1ccccc1)C2 | 25.5 µM (active) | 31 µM (active) |  | 
COCCNC(=O)[C@H](C)[C@H]1C[C@]1(C)[C@H](NC(=O)OCc1ccccc1)c1ccccc1 |  |  | 20 µM (inconclusive) | AC50 [4]: 20 µM (inconclusive)
C[C@H](NCCc1ccc(O)cc1)[C@@H](O)c1ccc(O)cc1 |  |  | 15.8 µM (inconclusive) and 12.6 µM (inconclusive) | 
O=C(O)c1cc(-c2ccc(O)cc2)on1 |  |  |  | EC50 [5]: > 38 µM (not active); EC50 [6]: > 160 µM (inactive)
FC(F)(F)COc1nc(OCC(F)(F)F)nc(N2CCN(c3ccccc3)CC2)n1 |  |  |  | EC50 [5]: > 38 µM (not active); EC50 [6]: > 160 µM (inactive)
C[As+](C)(c1ccc(Br)c([N+](=O)[O-])c1)c1ccc(Br)c([N+](=O)[O-])c1 |  |  | 1.58 µM (inconclusive) | 
COc1cccc(CNc2ccc3nc(-c4ccc(N)cc4)c(OC)n3n2)c1 |  |  | 10 µM (inconclusive) | 
C/N=C1\N[C@H](c2ccccc2)N(c2ccccc2)S1 |  |  | 25.1 µM (inconclusive) | 
COc1ccc(N(CC(=O)Nc2cccc(C)c2)S(=O)(=O)c2c(C)n[nH]c2C)cc1 |  |  | 20 µM (inconclusive) | 
CCN(C(=O)c1cc(Cl)ccc1OC)C1CCCCC1 | > 300 µM (not active) | > 300 µM (not active) |  | 
Cc1ccc(C)c(NC(S)=NNC(=O)c2csc(C)c2)c1 |  |  |  | EC50 [5]: 0.947 µM (active); EC50 [6]: 67.2 µM (active)
COc1ccc(N/C=C2/C(=O)NC(=S)N(Cc3ccccc3)C2=O)c(OC)c1 | > 300 µM (inconclusive) | > 300 µM (inconclusive) |  | EC50 [7]: 2.74 µM (active)
CCOC(=O)C1Nc2ccc(C)cc2C2C=CCC12 (stereo unspecified) | > 300 µM (not active) | > 300 µM (not active) |  | 
O=C(NC(=S)Nn1cnc2c(cnn2-c2ccccc2)c1=O)c1ccc(Cl)cc1 |  |  |  | EC50 [5]: > 38 µM (not active); EC50 [6]: 143 µM (inconclusive)
O=S(=O)(Nc1ccc(O)c2ccccc12)c1ccc(Br)cc1 | 22.9 µM (active) | 36 µM (active) |  | 
CCCCCCCSc1nc(N)cc(O)n1 |  |  |  | EC50 [5]: 4.49 µM (active); EC50 [6]: > 150 µM (inactive)
CCS(=O)(=O)N1CCC(C(=O)NCCN2CCN(Cc3ccccc3)CC2)CC1 |  |  | 14.1 µM (inconclusive) | 
Cc1ccc(C)c(/C(=N\N=C(N)N)C2CC2)c1 |  |  | 3.98 µM (inconclusive) | 
O=C(O)c1ccc2c(c1)C1C=CCC1C(c1ccncc1)N2 (stereo unspecified) | 24.3 µM (inconclusive) | 58.5 µM (active) |  | 
COc1cc(C2C(C#N)=C(N)OC3=C2C(=O)CCC3)cc2c1OCO2 (stereo unspecified) | > 300 µM (not active) | > 300 µM (not active) |  | 

SMILES | EC50 [1] | EC50 [2] | AC50 [3] | further results
CS(=O)(=O)Nc1cccc(-c2nc(Nc3ccc(F)cc3)c3ccccc3n2)c1 |  |  | 39.8 µM (inconclusive) | 
Cc1cnc(CNc2ncnc3ccc(-c4ccoc4)cc23)cn1 |  |  | 39.8 µM (inconclusive) | 
C=CCn1c(Cc2nc3ccccc3[nH]2)n[nH]c1=S | 1.1 µM (active) | 80.2 µM (active) |  | 
CC(=O)C(=NNc1nc2c([nH]1)c(=O)n(C)c(=O)n2C)C(C)=O | 12.7 µM (active) | 73.9 µM (active) |  | 
CC(C)CNC(=O)C1Nc2ccc(C(F)(F)F)cc2C2C=CCC12 (stereo unspecified) | > 300 µM (not active) | > 300 µM (not active) |  | 
CNc1nc(-c2ccccc2C)nc2ccccc12 |  |  | 31.6 µM (inconclusive) | AC50 [8]: 20 µM (inconclusive)
COC(=O)c1cc(C(=O)OC)cc(-n2c(C)cc(C(=O)COC(=O)CNS(=O)(=O)c3ccc(C)cc3)c2C)c1 | > 300 µM (not active) | > 300 µM (not active) |  | 
CC(C)c1ccccc1-n1c(SCC(=O)N2CCN(c3ccccc3)CC2)nnc1-c1cccnc1 |  |  | 15.8 µM (inconclusive) | 
O=S(=O)(NCC(c1ccco1)N1CCN(c2ccc(F)cc2)CC1)c1ccc2c(c1)OCCO2 (stereo unspecified) |  |  |  | EC50 [5]: > 38 µM (not active); EC50 [6]: > 150 µM (inactive)
CCC1=NN(C(=O)c2ccccc2O)C(O)(c2ccccc2)C1 (stereo unspecified) |  |  |  | EC50 [9]: 2.58 µM (active); EC50 [10]: 26.7 µM (active); EC50 [5]: 0.788 µM (active); EC50 [6]: > 160 µM (inactive); EC50 [11]: > 150 µM (not active); AC50 [12]: 3.72 µM (active)
Cc1cc(/C=C2\C(=O)NC(=O)N(c3cccc(F)c3)C2=O)c(C)n1-c1ccc(C(=O)O)c(Cl)c1 | > 300 µM (not active) | > 300 µM (not active) |  | 
Cc1cccc(NC2=NC(=O)CS2)c1 | > 300 µM (not active) | > 300 µM (not active) |  | 
O=C(CCC(=O)c1cccs1)OCC(=O)N1CCN(C(=O)c2ccco2)CC1 |  |  | 39.8 µM (inconclusive) | AC50 [4]: 11.2 µM (inconclusive)
Cc1n[nH]c(C)c1CCNCc1ccc(OCC(O)CN2CCCCC2)cc1 (stereo unspecified) |  |  |  | EC50 [5]: > 38 µM (not active); EC50 [6]: > 150 µM (inconclusive)
c1ccc(-c2ccc(N3CCCC4(CCNCC4)C3)cc2)cc1 |  |  | 20 µM (inconclusive) | 
Cc1cccc(/N=N/c2c(C)[nH]n(C(N)=S)c2=O)c1C |  |  |  | EC50 [5]: 3.07 µM (active); EC50 [6]: > 150 µM (inactive)
COc1cccc(N/N=C2/C(=O)Nn3c2nc(C)cc3=O)c1 | < 0.06 µM (inconclusive) | > 300 µM (inconclusive) |  | 
CCNC(=O)O/N=C(\C)c1sc(-c2ccccc2)nc1C |  |  | 20 µM (inconclusive) | 
O=C1CCCCC/C1=N/Nc1ccc(OCc2ccccc2)cc1 |  |  |  | EC50 [5]: > 38 µM (not active); EC50 [6]: > 150 µM (inactive)
CC(C)=CCc1c2c(c(O)c3c(=O)c4c(oc13)-c1cc(O)c(O)cc1OC4C=C(C)C)C=CC(C)(C)O2 (stereo unspecified) [CYCLOHETERPHYLLIN] |  |  |  | EC50 [9]: 2.95 µM (active); EC50 [10]: 4.01 µM (active); EC50 [5]: > 38 µM (not active); EC50 [6]: 16.5 µM (inconclusive); EC50 [11]: > 150 µM (not active)
